{
  "source": "patent US20050013781A1",
  "about": "“Sunscreen composition” (Playtex Products, Inc., priority 2003, published 2005)",
  "assay_type_in_all_cases": "physicochemical",
  "key": {"[1]": {"experiment": "Photostability on VITRO-SKIN: retained absorbance and critical wavelength before and after irradiation", "experimental": "Referring to Table 7 above, the compositions were applied on Vitro-Skin (0.6 mg/cm2) and irradiated. The irradiation dose was 5 MEDs repeated 4 times (=20 MEDs total). Retained Absorbance at 370 nm (UVA photostability, FIG. 1), 310 nm (UVB photostability, FIG. 2) and critical wavelength (Table 8, FIG. 3) were determined for each composition before and after each irradiation dose in order to determine their photostability.\nThe resulting sunscreen oil phases were tested for photostability by measuring absorbance on a Labsphere UV-1000S Ultraviolet Transmittance Analyzer before and after irradiation with a Solar Light Company model 16S solar simulator (equipped with a WG 320 filter to transmit radiation greater than 290 nm) in 5 MED (105 mJ/cm^2) increments up to 20 MED cumulative dose. Output was monitored by a PMA 2105 UV-B DCS Detector (biologically weighted) and controlled by a PMA 2100 Automatic Dose Controller (Solar Light Co.).\nA synthetic skin substrate was used for testing the sunscreen compositions (VITRO-SKIN substrate by IMS, Inc. of Milford, Conn.). To prepare the substrate, a 300 g solution of 44 g of glycerin and 256 g of deionized water was added to an IMS hydrating chamber, and a sheet of VITRO-SKIN was placed in the hydrating chamber for approx. 16 hours. Several 6.5 cm squares were cut from the hydrated VITRO-SKIN and used for absorbance measurements.\nTo prepare slides for testing, sunscreen composition is drawn or placed into a pipette. The test composition is uniformly applied to VITRO-SKIN square (0.6 mg/cm^2). This application dose of the oil phase, 0.6 mg/cm^2, corresponds to the application dose of 2 mg/cm^2 of sunscreen formulation (typically the concentration of the oil phase in the sunscreen formulation is about 30%). The VITRO-SKIN square was then placed on a foam block, and the test material was spread by finger (covered with a latex glove or finger cot), first in a circular motion, then by a side-to-side motion during which the VITRO-SKIN is deformed by the pressure. The square was then mounted in a slide holder and allowed to dry for about 15 to 20 minutes.\nTo test photostability, a slide was positioned on the UV transmittance analyzer using registration marks, and a scan of 1 sq. cm spot on the slide was performed. The slide was then transferred to a holder placed adjacent to the solar simulator and, using a calipers, was positioned such that the beam of UV radiation exiting the solar simulator illuminated the same 1 cm spot on the slide. The following software settings were used: UV-B—290-320 nm; UV-A—320-400 nm; SPF—290-400 nm; Spectral Irradiance; Noon, July 3, Albuquerque, N.Mex.; SPF Spectral Irradiance and Erythermal Effectiveness settings as set by manufacturer. Following an exposure of 5 MED, the slide was again placed in position on the UV transmittance analyzer, and a scan of the exposed spot was performed. The procedure was repeated on the same 1 cm spot on the slide until the desired total radiation dosage was achieved.\nThe above compositions were applied on Vitro-Skin (0.6 mg/cm2) and irradiated. The irradiation dose was 5 MEDs repeated 4 times (=20 MEDs total). Retained Absorbance at 370 nm (Table 11 and FIG. 4), 310 nm (Table 12) and critical wavelength (Table 13 and FIG. 5) were determined for each composition before and after each irradiation dose in order to determine their photostability. The methodology is described above in more detail in Example 3."}, "[2]": {"experiment": "Dielectric constant of glycols and derivatives", "settings": "for Dielectric Constant, 23° C.: neat glycol/derivative", "from_the_text": "Determining the polarity of a mixture or an emulsion can be performed in various ways. For example, determining a polarity can include measuring a property that is a function of polarity, such as a dielectric constant. Measurement of a dielectric constant of a liquid can be performed by various sensors, such as immersion probes, flow-through probes, and cup-type probes, attached to various meters, such as those available from the Brookhaven Instruments Corporation of Holtsville, N.Y. (e.g., model BI-870) and the Scientifica Company of Princeton, N.J. (e.g. models 850 and 870). For consistency of comparison, preferably all measurements for a particular filter system are performed at substantially the same sample temperature, e.g., by use of a water bath. Generally, the measured dielectric constant of a substance will increase at lower temperatures and decrease at higher temperatures.\nDielectric Constants of the following glycols and their derivatives have been measured (see Table 1)."}, "[3]": {"experiment": "DOE (central composite design) photostability of model oil phases: retained absorbance after 15 MED", "settings": "response surface analysis of DOE 1-3", "experimental": "In order to determine the impact of the concentration of avobenzone, from 0.04842 M to 0.0968 M (Factor 1) and different molar ratios of 1,2-octanediol (caprylyl glycol) to avobenzone, from 0 to 10 (Factor 2), on the photostability of avobenzone in the different sunscreen compositions, numerous studies were conducted. Three designs of experiments that represent central composite designs (CCDs) and D.O.E. Fusion 7.2.2 software were employed.\nThe CCD type of design was used to determine the effect of two factors: concentration of Avobenzone and the molar ratio 1,2-octanediol/avobenzone on the photostability of avobenzone in the different sunscreen compositions. Two responses were measured: the retained absorbance (%) of a sunscreen composition at 370 nm (UVA) and the same measurement at 310 nm (UVB) after irradiation dose of 15 MED.\nThe same order of experiments was run in the different set-ups. As a result, two categorical factors were added: Oxybenzone (absent or present at a predetermined constant level) and Octocrylene (absent or present at a predetermined constant level). Table 16 presents the three set-ups as well as the numbers of the formulation tables and response tables.\nResponse surface equalization were fitted to both responses (retained absorbance at 370 nm and retained absorbance at 310 nm, both after an irradiation dose of 15 MED). The significant factors were selected."}},
  "data": [
    {"compound": "CCCCC(O)CO", "note": "(centres unmarked) [1,2-Hexanediol]", "values": [
      {"measurement": "photostability of UVB sunscreens at 310 nm (in words)", "setting": "[1]", "result": "can improve the photostability of UVB sunscreens at 310 nm"},
      {"measurement": "photostability of avobenzone at 370 nm (in words)", "setting": "[1]", "result": "without the significant improvement of the photostability of avobenzone at 370 nm"},
      {"measurement": "Dielectric Constant, 23° C.", "setting": "[2]", "result": 15.1}
    ]},
    {"compound": "Polyethylene Glycol-7 Methyl Ether", "values": [
      {"measurement": "Dielectric Constant, 23° C.", "setting": "[2]", "result": 13.1}
    ]},
    {"compound": "CCCCOCCOCCO", "note": "[Diethylene Glycol Monobutyl Ether]", "values": [
      {"measurement": "Dielectric Constant, 23° C.", "setting": "[2]", "result": 10.59}
    ]},
    {"compound": "CCCCC(CC)COC(=O)C(C#N)=C(c1ccccc1)c1ccccc1", "note": "(centres unmarked) [Octocrylene, 2-ethylhexyl-2-cyano-3,3 diphenylacrylate]", "values": [
      {"measurement": "effect on retained absorbance at 310 nm after 15 MED (in words)", "setting": "[3]", "result": "gives mild a gain in absorbency"},
      {"measurement": "effect on retained absorbance at 370 nm after 15 MED (in words)", "setting": "[3]", "result": "helps the absorbance retention 370 nm, but not as significant as in the case of oxybenzone"}
    ]},
    {"compound": "CCCC(O)CO", "note": "(centres unmarked) [Pentylene Glycol, 1,2-pentanediol]", "values": [
      {"measurement": "photostability of UVB sunscreens at 310 nm (in words)", "setting": "[1]", "result": "can improve the photostability of UVB sunscreens at 310 nm"},
      {"measurement": "photostability of avobenzone at 370 nm (in words)", "setting": "[1]", "result": "without the significant improvement of the photostability of avobenzone at 370 nm"},
      {"measurement": "Dielectric Constant, 23° C.", "setting": "[2]", "result": 18.2}
    ]},
    {"compound": "COc1ccc(C(=O)c2ccccc2)c(O)c1", "note": "[Oxybenzone, oxybenzone]", "values": [
      {"measurement": "effect on retained absorbance at 310 nm after 15 MED (in words)", "setting": "[3]", "result": "helps retention at 310 nm"},
      {"measurement": "effect on retained absorbance at 370 nm after 15 MED (in words)", "setting": "[3]", "result": "gives the highest boost in retain absorbance at 370 nm and 15 MED exposure"}
    ]},
    {"compound": "CCC(=O)OCCCCO", "note": "[Butylene Glycol Monopropionate]", "values": [
      {"measurement": "Dielectric Constant, 23° C.", "setting": "[2]", "result": 11.72}
    ]},
    {"compound": "CCCCCCC(O)CO", "note": "(centres unmarked) [1,2-Octanediol]", "values": [
      {"measurement": "photostabilization of avobenzone (in words)", "setting": "[1]", "result": "most effectively stabilizes avobenzone"},
      {"measurement": "effect on retained absorbance at 310 nm after 15 MED (in words)", "setting": "[3]", "result": "significantly improves the photostability of sunscreens at 310 nm"},
      {"measurement": "effect on retained absorbance at 370 nm after 15 MED (in words)", "setting": "[3]", "result": "significantly improves the photostability"},
      {"measurement": "Dielectric Constant", "setting": "[2]; measured at 30° C., solid at room temperature (23 C.)", "result": 10.61}
    ]},
    {"compound": "CCOCCOCCO", "note": "[Ethoxydiglycol, Diethylene glycol monoethyl ether]", "values": [
      {"measurement": "photostability of UVB sunscreens at 310 nm (in words)", "setting": "[1]", "result": "can improve the photostability of UVB sunscreens at 310 nm"},
      {"measurement": "photostability of avobenzone at 370 nm (in words)", "setting": "[1]", "result": "without the significant improvement of the photostability of avobenzone at 370 nm"},
      {"measurement": "Dielectric Constant, 23° C.", "setting": "[2]", "result": 13.69}
    ]}
  ]
}
